Laboratory results as given in US4191753A, “Anti-hypertensive peptide analogs” (University of Miami, priority 1978, dated 1980).
Where a SMILES comes first, the peptide text is derived from it.

Assays:
[1] = cited from earlier work
patients = conditions: cited from earlier work
[2] = tested on: patients with hypertension; conditions: cited from earlier work
ACE [3] = target: ACE (Homo sapiens, UniProt P12821); test: biochemical
ACE [4] = target: T1, ACE (Oryctolagus cuniculus, UniProt P12822); conditions: read-out: I50 reported by Cushman, et al.; literature value; cited from earlier work
T1 sequence (P12822 34-1310): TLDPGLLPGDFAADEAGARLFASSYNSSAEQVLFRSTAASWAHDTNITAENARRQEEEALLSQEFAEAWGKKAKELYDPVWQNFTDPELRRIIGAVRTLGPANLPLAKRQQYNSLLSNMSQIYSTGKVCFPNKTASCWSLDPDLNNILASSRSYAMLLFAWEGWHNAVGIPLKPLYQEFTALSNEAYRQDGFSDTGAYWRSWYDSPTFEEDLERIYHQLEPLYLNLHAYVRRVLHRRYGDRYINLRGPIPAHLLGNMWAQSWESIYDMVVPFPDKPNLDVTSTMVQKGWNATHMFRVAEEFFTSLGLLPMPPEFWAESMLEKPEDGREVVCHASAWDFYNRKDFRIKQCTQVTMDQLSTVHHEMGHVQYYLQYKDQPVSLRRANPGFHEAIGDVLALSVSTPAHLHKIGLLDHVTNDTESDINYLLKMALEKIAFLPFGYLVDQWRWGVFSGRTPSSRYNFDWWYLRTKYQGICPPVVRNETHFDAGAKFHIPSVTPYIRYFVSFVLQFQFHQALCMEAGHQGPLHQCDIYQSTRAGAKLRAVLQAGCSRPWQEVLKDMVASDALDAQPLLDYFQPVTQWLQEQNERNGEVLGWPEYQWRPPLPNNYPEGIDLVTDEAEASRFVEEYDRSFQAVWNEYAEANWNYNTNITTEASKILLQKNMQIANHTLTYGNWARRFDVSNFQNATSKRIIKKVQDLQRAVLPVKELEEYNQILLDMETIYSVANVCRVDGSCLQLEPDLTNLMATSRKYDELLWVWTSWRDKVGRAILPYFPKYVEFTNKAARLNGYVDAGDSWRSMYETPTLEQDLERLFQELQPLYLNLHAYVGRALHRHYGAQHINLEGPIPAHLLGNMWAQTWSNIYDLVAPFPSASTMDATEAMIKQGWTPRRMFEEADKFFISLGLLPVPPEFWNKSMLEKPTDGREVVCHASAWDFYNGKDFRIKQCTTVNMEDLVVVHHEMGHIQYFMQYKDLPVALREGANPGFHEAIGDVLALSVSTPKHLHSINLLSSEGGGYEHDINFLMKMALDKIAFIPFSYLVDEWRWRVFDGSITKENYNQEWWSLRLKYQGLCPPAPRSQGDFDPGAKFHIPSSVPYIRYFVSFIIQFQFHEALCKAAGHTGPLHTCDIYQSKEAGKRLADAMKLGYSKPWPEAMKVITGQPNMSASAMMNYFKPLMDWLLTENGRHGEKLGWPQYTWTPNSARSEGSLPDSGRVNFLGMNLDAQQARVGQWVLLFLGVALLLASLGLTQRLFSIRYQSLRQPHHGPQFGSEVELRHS

[5] = target: T2, human urinary angiotensin converting enzyme (Homo sapiens, UniProt P12821); test: Inhibition of hydrolysis of [3H]benzoyl-Gly-His-Leu by human urinary angiotensin converting enzyme; assay type: biochemical; conditions: [3H]benzoyl-Gly-His-Leu 100 μM (approximately one-half of Km), 37° C., 15 min., pH 8.0; read-out: I50
T2 construct: human urinary angiotensin converting enzyme, prepared as described by Ryan, J., et al; from tissue; host or cells: human urine
T2 sequence (P12821 30-1306): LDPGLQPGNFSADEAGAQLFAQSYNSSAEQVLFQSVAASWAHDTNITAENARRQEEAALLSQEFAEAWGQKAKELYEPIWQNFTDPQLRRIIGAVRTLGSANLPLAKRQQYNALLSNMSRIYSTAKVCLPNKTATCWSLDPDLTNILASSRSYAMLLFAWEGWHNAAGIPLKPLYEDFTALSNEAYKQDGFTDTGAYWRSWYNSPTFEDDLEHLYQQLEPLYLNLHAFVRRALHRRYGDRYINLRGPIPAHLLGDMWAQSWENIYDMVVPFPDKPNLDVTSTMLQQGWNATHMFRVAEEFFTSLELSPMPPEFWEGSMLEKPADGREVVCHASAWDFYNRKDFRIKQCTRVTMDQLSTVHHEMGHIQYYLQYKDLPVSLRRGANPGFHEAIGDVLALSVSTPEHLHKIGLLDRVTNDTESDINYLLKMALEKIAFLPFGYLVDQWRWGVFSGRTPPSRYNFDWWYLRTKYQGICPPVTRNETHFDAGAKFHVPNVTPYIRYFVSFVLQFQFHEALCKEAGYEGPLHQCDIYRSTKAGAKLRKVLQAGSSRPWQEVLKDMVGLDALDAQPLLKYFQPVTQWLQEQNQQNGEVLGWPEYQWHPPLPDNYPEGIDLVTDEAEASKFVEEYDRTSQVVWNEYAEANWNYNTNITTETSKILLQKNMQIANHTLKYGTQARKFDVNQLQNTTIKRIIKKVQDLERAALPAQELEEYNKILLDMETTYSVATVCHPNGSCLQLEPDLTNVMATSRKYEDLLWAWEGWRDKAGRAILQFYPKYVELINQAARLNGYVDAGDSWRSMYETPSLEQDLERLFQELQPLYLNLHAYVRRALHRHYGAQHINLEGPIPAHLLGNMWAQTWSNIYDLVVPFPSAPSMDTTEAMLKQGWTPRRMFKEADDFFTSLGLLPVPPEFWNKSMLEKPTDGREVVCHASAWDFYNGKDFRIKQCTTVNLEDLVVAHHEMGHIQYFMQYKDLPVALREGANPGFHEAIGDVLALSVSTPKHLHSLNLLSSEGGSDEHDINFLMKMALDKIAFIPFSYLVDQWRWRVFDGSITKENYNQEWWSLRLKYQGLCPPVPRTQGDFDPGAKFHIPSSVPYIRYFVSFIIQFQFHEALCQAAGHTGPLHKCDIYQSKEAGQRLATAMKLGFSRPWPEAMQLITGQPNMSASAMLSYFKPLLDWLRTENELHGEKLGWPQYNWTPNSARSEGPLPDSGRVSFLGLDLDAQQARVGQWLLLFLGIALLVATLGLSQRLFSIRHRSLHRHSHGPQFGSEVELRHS
Description: ΔPro^3 -BPP9a, ΔPro^5 -BPP9a, ΔPro^8 -BPP9a, and ΔPro^9 -BPP9a were each compared with BPP9a (<Glu-Trp-Pro-Arg-Pro-Gln-Ile-Pro-Pro; also known as SQ 20,881) for their abilities to inhibit the hydrolysis of [^3 H]benzoyl-Gly-His-Leu by human urinary angiotensin converting enzyme, prepared as described by Ryan, J., et al., Tissue and Cell 10, 555 (1978). A standard amount of enzyme (the amount required to hydrolyze 8% of substrate during the course of incubation at 37° C. for 15 min.) was incubated with [^3 H]benzoyl-Gly-His-Leu in a final reaction volume of 100 μl or 110 μl. The reaction mixture contained 0.05 M Hepes buffer, pH 8.0, 0.1 M NaCl, 0.75 M Na2 SO4, [^3 H]-benzoyl-Gly-His-Leu (100 μM at 10 mCi/mmole, enzyme and varying concentrations of inhibitor, from […]. Net enzyme activity was measured in terms of the rate of formation of [^3 H]benzoyl-glycine (^3 H-hippuric acid). Under the conditions of the assay, the initial substrate concentration is approximately one-half of Km. Results are expressed as I50 values, i.e., the concentration of a given inhibitor required to reduce enzyme activity by half.
These factors include the source of enzyme, its purity, the substrate used and its concentration, and the composition of the assay buffer. […] For example, Cushman, et al., supra, reported an I50 value for BPP9a of approximately 1000 nM, whereas Dorer, F.E., et al., Biochim. Biophys. Acta 429, 220 (1976) reported I50 values in the range 12nM-15nM. The sources of such variations are not known.

guinea pigs = test: Mean arterial blood pressure of guinea pigs anesthetized with pentobarbital; assay type: in vivo, guinea pig; conditions: single intravenous injection, 2 mg; for ill effects in test animals: blood pressure reduced to shock levels; for abnormalities in the electrocardiogram: Lead II monitored
Description: ΔPro^3 -BPP9a and ΔPro^5 -BPP9a were tested for their ability to reduce mean arterial blood pressure of guinea pigs anesthetized with pentobarbital, an anesthetic thought to activate the renin-angiotensin system. Female guinea pigs (500-700 g body wgt.) of the Ft. Detrick-Hartley strain were injected intraperitoneally with pentobarbital, 30 mg/kg. Tracheostomy was performed, and the animals were ventilated with a small animal respirator. A polyethylene cannula was inserted into a femoral vein, and heparin, 1,000 units, was injected. A second cannula was inserted into a femoral artery for measurement of arterial blood pressure. The arterial cannula was connected to a pressure transducer, and the transducer was connected to a polygraph. Lead II of the electrocardiogram was monitored continuously.
Each of three guinea pigs received a single intravenous injection of ΔPro^3 -BPP9a, 2 mg in 0.25 ml of 0.9% (w/v) NaCl. On average, mean arterial blood pressure fell by 57.2% (81.7 mmHg to 35 mmHg). The maximum reduction was achieved within 15 sec. of injection. Each of seven guinea pigs received a single intravenous injection of ΔPro^5 -BPP9a, 2 mg in 0.25 ml of saline.

ACE (Homo sapiens, UniProt P12821), sequence (P12821 30-1306, species assumed): as the sequence (P12821 30-1306) above

## C[C@H](CS)C(=O)N1CCCC1C(=O)O (stereo in doubt) [SQ 14,225, D-2-methyl-3-mercaptopropanoyl-L-proline]
[1]
  stability in solution: instability of the drug in solution due to disulfide dimer formation
patients; human, in vivo
  patients known to benefit from ACE inhibitors who respond adversely: ≤ 11%
patients; oral
  oral effectiveness: effective orally

## CC[C@H](C)[C@H](NC(=O)[C@H](CCC(N)=O)NC(=O)[C@@H]1CCCN1C(=O)[C@H](CCCNC(=N)N)NC(=O)[C@@H]1CCCN1C(=O)[C@H](Cc1c[nH]c2ccccc12)NC(=O)[C@@H]1CCC(=O)N1)C(=O)N1CCC[C@H]1C(=O)N1CCC[C@H]1C(=O)O [BPP9a, <Glu-Trp-Pro-Arg-Pro-Gln-Ile-Pro-Pro]
[2]
  side reactions of the type observed with SQ 14,225, in clinical use of BPP9a: have not been encountered previously
ACE [3]
  IC50: ~0.028 µM
ACE [4]
  IC50: ~1 µM
[5]
  IC50: 0.028 µM

## NC(N)=NCCC[C@H](NC(=O)[C@H](Cc1ccccc1)NC(=O)[C@@H]1CCCN1C(=O)[C@H](CO)NC(=O)[C@H](Cc1ccccc1)NC(=O)CNC(=O)[C@@H]1CCCN1C(=O)[C@@H]1CCCN1C(=O)[C@@H](N)CCCN=C(N)N)C(=O)O [bradykinin, ArgProProGlyPheSerProPheArg] (H-RPPGFSPFR-OH)
ACE [3]
  IC50: ~0.5 µM

## CC[C@H](C)[C@H](NC(=O)[C@H](CCC(N)=O)NC(=O)[C@@H]1CCCN1C(=O)[C@H](CCCNC(=N)N)NC(=O)[C@@H]1C=CCN1C(=O)[C@H](Cc1c[nH]c2ccccc12)NC(=O)[C@@H]1CCC(=O)N1)C(=O)N1CCC[C@H]1C(=O)N1CCC[C@H]1C(=O)O [ΔPro^3 -BPP9a, <Glu-Trp-ΔPro-Arg-Pro-Gln-Ile-Pro-Pro]
Guinea pigs
  increase in heart rate: 0-10%
  ill effects in test animals: no ill effects
  abnormalities in the electrocardiogram: no abnormalities were observed
[5]
  IC50: 0.0009 µM

## CC[C@H](C)[C@H](NC(=O)[C@H](CCC(N)=O)NC(=O)[C@@H]1C=CCN1C(=O)[C@H](CCCNC(=N)N)NC(=O)[C@@H]1CCCN1C(=O)[C@H](Cc1c[nH]c2ccccc12)NC(=O)[C@@H]1CCC(=O)N1)C(=O)N1CCC[C@H]1C(=O)N1CCC[C@H]1C(=O)O [ΔPro^5 -BPP9a, <Glu-Trp-Pro-Arg-ΔPro-Gln-Ile-Pro-Pro]
Guinea pigs
  increase in heart rate: 0-10%
  ill effects in test animals: no ill effects
  abnormalities in the electrocardiogram: no abnormalities were observed
[5]
  IC50: 0.0009 µM

## CC[C@H](C)[C@H](NC(=O)[C@H](CCC(N)=O)NC(=O)[C@@H]1CCCN1C(=O)[C@H](CCCNC(=N)N)NC(=O)[C@@H]1CCCN1C(=O)[C@H](Cc1c[nH]c2ccccc12)NC(=O)[C@@H]1CCC(=O)N1)C(=O)N1CC=C[C@H]1C(=O)N1CCC[C@H]1C(=O)O [ΔPro^8 -BPP9a, <Glu-Trp-Pro-Arg-Pro-Gln-Ile-ΔPro-Pro]
[5]
  IC50: 0.06 µM

## CC[C@H](C)[C@H](NC(=O)[C@H](CCC(N)=O)NC(=O)[C@@H]1CCCN1C(=O)[C@H](CCCNC(=N)N)NC(=O)[C@@H]1CCCN1C(=O)[C@H](Cc1c[nH]c2ccccc12)NC(=O)[C@@H]1CCC(=O)N1)C(=O)N1CCC[C@H]1C(=O)N1CC=C[C@H]1C(=O)O [ΔPro^9 -BPP9a, <Glu-Trp-Pro-Arg-Pro-Gln-Ile-Pro-ΔPro]
[5]
  IC50: 0.00015 µM
